One assay relates to SFPQ. The assay can be described thus: Coimmunoprecipitation of endogenous SFPQ from DRG lysate, Western blot. It is filed as binding, rat. Particulars: DRG sensory neuron lysate. Background: In western blotting, separated proteins are transferred to a membrane and probed.
The target of assay [1] is KLC1 TPR1-6 fragment (KLC1: 205-501) (Homo sapiens, UniProt Q07866). The assay can be described thus: ITC binding of SFPQ peptides to KLC1.
A further assay has as its target KLC1 TPR1-6. Particulars: cited from earlier work.

Where two headings read alike, the source gives them in different places. Ends that are not written are not given here.

Chain of KLC1 TPR1-6 fragment (KLC1: 205-501) (Q07866 205-501): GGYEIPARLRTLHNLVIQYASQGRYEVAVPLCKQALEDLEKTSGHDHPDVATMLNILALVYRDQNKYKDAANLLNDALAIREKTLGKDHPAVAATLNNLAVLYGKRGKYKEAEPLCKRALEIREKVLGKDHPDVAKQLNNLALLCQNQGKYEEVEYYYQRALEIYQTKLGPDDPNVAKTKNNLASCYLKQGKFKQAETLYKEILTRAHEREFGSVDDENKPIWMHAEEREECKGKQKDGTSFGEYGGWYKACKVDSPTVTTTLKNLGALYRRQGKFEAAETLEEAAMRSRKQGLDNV

Take “KIF3A: kinesin transporting RNA granules in neurons”: in the assay with SFPQ, the “coimmunoprecipitation with SFPQ (in words)” value is on record as “none of these kinesins significantly coimmunoprecipitates with SFPQ”. As to “KIF1A: axonal transport motor protein in DRGs”, the “coimmunoprecipitation with SFPQ (in words)” value in the assay on SFPQ was “none of these kinesins significantly coimmunoprecipitates with SFPQ”. What is called Kd is the constant that tells how readily two partners part at equilibrium. For the substance ESEMEDAYHEHQANLLR [WT SFPQ peptide], the Kd in assay [1] came to 3.83 ± 2.31 µM. As for TCPTEDIYLE [JIP1: TCPTEDIYLE], on KLC1 TPR1-6 (KLC1: 205-502, ref Nguyen et al., 2018), the Kd was 5 ± 0.5 µM. With EYTCPTEDIYLE [JIP1: EYTCPTEDIYLE], the Kd at KLC1 TPR1-6 (KLC1: 228-495, ref Zhu et al., 2012) was 9.4 ± 5.85 µM. In the case of ESEMEDAAHEHQANLLR [SFPQ^Y527A peptide], the “binding to KLC1 (in words)” value in assay [1] (ITC, 25°C, pH 7.5) is listed as “did not bind to KLC1”. For the same substance, in assay [1] (ITC, 20 mM Hepes (pH 7.5), 150 mM NaCl, 0.5 mM TCEP, 2% DMSO, 25°C), the ΔS result is reported as “No binding”. In assay [1] (ITC, 20 mM Hepes (pH 7.5), 150 mM NaCl, 0.5 mM TCEP, 2% DMSO, 25°C, single-site model), the ΔH entry was “No binding”.

Values taken from publication PMC7721913 (The Journal of Cell Biology, 2020).
